Test results taken from patent publication US10253007B2, “Taxanes compounds, preparation method therefor, and uses thereof” (Jiangsu Tasly Diyi Pharmaceutical Co., Ltd., priority 2013, dated 2019).
“Also recorded” adds a separate entry of the source.

Columns and labels:
[1] = tested on: breast cancer cell line MCF-7; experiment: IC50 values on breast cancer cell line MCF-7; format: cell-based; conditions: Homo sapiens, MCF7, 72 h, read-out: MCF-7(IC50, nM)
Outline: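 MCF-7 human breast cancer cells exposed to compounds for 72 h, with paclitaxel as positive control. IC50 from three independent repeats with replicate wells.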

[2] = Caco-2 cell monolayer membrane transport assay; conditions: human; for recovery: Caco-2, Recovery rate in mass
Excerpt: (§1) Caco-2 Cell Monolayer Membrane Transport Assay
(§2) Human-derived colorectal adenocarcinoma cell line Caco-2 cell monolayer model was used to study the bidirectional transport of the target compounds from the apical (AP) side to the basolateral (BL) side and from BL side to AP side. HPLC was used for quantitative analysis to calculate transport parameters, apparent permeability coefficient (Papp) and the efflux ratio.

Caco-2 cell monolayer = Caco-2 cell monolayer membrane transport assay; conditions: Caco-2 monolayer
Excerpt: as §1, §2

CO[C@H]1C(=O)[C@]2(C)[C@@H](OC(=O)N(C)C)C[C@H]3OC[C@@]3(OC(C)=O)[C@H]2[C@H](OC(=O)c2ccccc2)[C@]2(O)C[C@H](OC(=O)[C@H](O)[C@@H](NC(=O)OC(C)(C)C)c3ccccc3)C(C)=C1C2(C)C [PCMI-31]
IC50 [1]: 9.63 ± 0.12 nM | Papp B→A ([2]; Caco-2): 26 ×10⁻⁶ cm/s | efflux ratio ([2]; Caco-2): 1.73 | Papp A→B ([2]; Caco-2, Papp A-B, Caco-2 cell line (21 days), bidirectional transport, Table 5): 15 ×10⁻⁶ cm/s | Papp A→B ([2]; Caco-2, Papp A-B, Mean, Caco-2, A-B, mean of two samples): 10.6 ×10⁻⁶ cm/s | Papp A→B ([2]; Caco-2, Papp A-B, Sample-01, Caco-2, A-B, Sample-01): 11.2 ×10⁻⁶ cm/s | Papp A→B ([2]; Caco-2, Papp A-B, Sample-02, Caco-2, A-B, Sample-02): 9.91 ×10⁻⁶ cm/s | Papp A→B ([2]; Caco-2, Papp A-to-B, Caco-2): > 10 ×10⁻⁶ cm/s | recovery ([2]; Mean, Caco-2, A-B, mean of two samples): 86.8% | recovery ([2]; Sample-01, Caco-2, A-B, Sample-01): 83% | recovery ([2]; Sample-02, Caco-2, A-B, Sample-02): 90.6% | membrane permeability (in words) (Caco-2 cell monolayer): highly permeable substrates; also recorded: highest membrane permeability
